ChEMBL document CHEMBL1132045, “New growth hormone secretagogues: C-terminal modified sulfonamide-analogues of NN703” (Bioorg Med Chem Lett, 1999)

Species on record: Rattus norvegicus
Assay: Compound was tested in vitro for growth hormone release in rat pituitary model
Assay type: functional

| Structure (SMILES) | EC50 [nM] |
| --- | --- |
| CC(=O)NC[C@@H](Cc1ccccc1)N(C)C(=O)[C@@H](Cc1ccc2ccccc2c1)N(C)C(=O)/C=C/CC(C)(C)N | 25 |
| CNC(=O)[C@@H](Cc1ccccc1)N(C)C(=O)[C@@H](Cc1ccc2ccccc2c1)N(C)C(=O)/C=C/CC(C)(C)N [TABIMORELIN] | 2.7 |
| CN(C(=O)[C@@H](Cc1ccc2ccccc2c1)N(C)C(=O)/C=C/CC(C)(C)N)[C@@H](CNC(=O)CCCO)Cc1ccccc1 | 34 |
| CN(C(=O)[C@@H](Cc1ccc2ccccc2c1)N(C)C(=O)/C=C/CC(C)(C)N)[C@@H](CNS(C)(=O)=O)Cc1ccccc1 | 2.5 |
| CN(C(=O)[C@@H](Cc1ccc2ccccc2c1)N(C)C(=O)/C=C/CC(C)(C)N)[C@H](Cc1cccs1)CN(C)S(C)(=O)=O | 3 |
